Laboratory results reported in patent US20120165319A1, “INHIBITORS OF INTERLEUKIN-1 BETA CONVERTING ENZYME” (VERTEX PHARMACEUTICALS INCORPORATED, priority 1995, published 2012).
Where two headings read alike, the source gives them in different places.

How the values were obtained:
[1] = tested on: IL-1β production, LPS-challenged mice; test: In vivo acute assay for efficacy as anti-inflammatory agent: LPS-induced IL-1β production in mice; parameters: species or system mouse; details: for inhibition at 50 mg/kg: Mus musculus, po, read-out: percent inhibition of IL-1β production; for inhibition at 50 mg/kg / percent inhibition of IL-1β production: LPS challenged mice, compound PO, 50 mg/kg; for Inhibition (%) of IL-1β production in LPS-challenged mice: oral, dosed at time of LPS challenge
Description: In Vivo Acute Assay for Efficacy as Anti-Inflammatory Agent
LPS-Induced IL-1β Production.
Efficacy of 214e and 217e was evaluated in CD1 mice (n=6 per condition) challenged with LPS (20 mg/kg IP). […] Blood was collected seven hours after LPS challenge. Serum IL-1β levels were measure by ELISA. […] Similar results were obtained in a second experiment. […] However, a clear dose response was not apparent.
Compounds 214e and 217e (50 mg/kg) were also administered by oral gavage to assess absorption.
The efficacy of analogs of 214e were also evaluated in LPS challenged mice after IP administration (FIG. 9) and PO administration (FIG. 10).
[…] The protocol is described in Example 7.

IL-1β, human whole blood = test: Whole blood assay for IL-1β production; type: cell-based; details: Table 17, read-out: Whole human blood IC50
In short: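 Human whole blood collected on Na2EDTA was treated with serially diluted compound in saline and then stimulated with LPS at 5.0 ng/ml final, for 16-18 h at 30 °C, in duplicate or triplicate. Plasma IL-1β was measured by ELISA at 1:200 dilution.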

[2] = 0 h, administered 0 h relative to time of LPS challenge
[3] = 2 h, administered −2 h relative to time of LPS challenge
[4] = administered 0 h relative to time of LPS challenge
[5] = administered −2 h relative to time of LPS challenge

Row | SMILES | inhibition at 50 mg/kg [1, 2] [%] | inhibition at 50 mg/kg [1, 3] [%] | IC50 (IL-1β, human whole blood; Homo sapiens) [nM] | percent inhibition of IL-1β production [1, 4] [%] | percent inhibition of IL-1β production [1, 5] | further results
1 | O=C1C[C@H](NC(=O)[C@@H]2CCCN3C(=O)CC[C@H](NC(=O)c4ccccc4)C(=O)N23)[C@H](OC2Cc3ccccc3C2)O1 [Compound 2100m, [1S,9S (2R,3S)]9-Benzamido-6,10-dioxo-N-[2-(2-indanyloxy)-5-oxo-tetrahydrofuran-3-yl]-1,2,3,4,7,8,9,10-octahydro-6H-pyridazino[1,2-a][1,2]diazepine-1-carboxamide] | 42 | 40 | – | – | – | –
2 | CCO[C@H]1OC(=O)C[C@@H]1NC(=O)[C@@H]1CCCN2C(=O)CC[C@H](NC(=O)c3nccc4ccccc34)C(=O)N12 [Compound 412e, [1S,9S(2S,3S)]N-(2-Ethoxy-5-oxotetrahydrofuran-3-yl)-6,10-dioxo-9-(isoquinolin-1-oylamino)-1,2,3,4,7,8,9,10-octahydro-6-H-pyridazino[1,2-a][1,2]diazepine-1-carboxamide] | – | – | – | – | – | Inhibition (%) of IL-1β production in LPS-challenged mice ([1]; 10 mg/kg dose): 5%; Inhibition (%) of IL-1β production in LPS-challenged mice ([1]; 25 mg/kg dose): 17%; Inhibition (%) of IL-1β production in LPS-challenged mice ([1]; 50 mg/kg dose): 61%
3 | CCOC1OC(=O)C[C@@H]1NC(=O)[C@@H]1CCCN2C(=O)CC[C@H](NC(=O)c3ccc(OC)cc3)C(=O)N12 (stereo partly drawn) [Compound 550i, [1S,9S(2RS,3S)]9-[(4-Methoxybenzoyl)amino]-6,10-dioxo-1,2,3,4,7,8,9,10-octahydro-N-(2-ethoxy-5-oxotetrahydrofuran-3-yl)-6H-pyridazino[1,2-a][1,2]diazepine-1-carboxamide] | 23 | -10 | 1400 | – | – | –
4 | Cc1ccccc1C(=O)N[C@H]1CCC(=O)N2CCC[C@@H](C(=O)N[C@H]3CC(=O)OC3OCc3ccccc3)N2C1=O (mixture of isomers) [Compound 213r, [1S,9S(2RS,3S)]N-(2-Benzyloxy-5-oxotetrahydrofuran-3-yl)-6,10-dioxo-1,2,3,4,7,8,9,10-octahydro-9-(2-toluoylamino)-6H-pyridazino[1,2-a][1,2]diazepine-1-carboxamide] | – | – | – | 37 | 59% | IC50 (IL-1β, human whole blood): < 300 nM
5 | CN(C)c1ccc(C(=O)N[C@H]2CCC(=O)N3CCC[C@@H](C(=O)N[C@H]4CC(=O)OC4OCc4ccccc4)N3C2=O)cc1 (mixture of isomers) [Compound 213f, [1S,9S(2RS,3S)]9-[(4-Dimethylaminobenzoyl)amino]-6,10-dioxo-1,2,3,4,7,8,9,10-octahydro-N-(2-Benzyloxy-5-oxotetrahydrofuran-3-yl)-6H-pyridazino[1,2-a][1,2]diazepine-1-carboxamide] | – | – | – | 8 | (−4) % | IC50 (IL-1β, human whole blood): 3000 nM
6 | CCOC(=O)C[C@@H](C=O)NC(=O)[C@@H]1CCCN2C(=O)CC[C@H](NC(=O)c3ccccc3)C(=O)N12 [Compound 2100i, [3S(1S,9S)]3-(9-Benzoylamino-6,10-dioxo-1,2,3,4,7,8,9,10-octahydro-6H-pyridazino[1,2-a][1,2]diazepine-1-carboxamido)-4-oxobutanoic acid ethyl ester] | 74 | 19 | – | – | – | –
7 | COc1ccc(C(=O)N[C@H]2CCC(=O)N3CCC[C@@H](C(=O)N[C@H]4CC(=O)OC4OCc4ccccc4)N3C2=O)cc1 (mixture of isomers) [Compound 213i, [1S,9S(2RS,3S)]9-[(4-Methoxybenzoyl)amino]-6,10-dioxo-1,2,3,4,7,8,9,10-octahydro-N-(2-Benzyloxy-5-oxotetrahydrofuran-3-yl)-6H-pyridazino[1,2-a][1,2]diazepine-1-carboxamide] | – | – | – | 62 | (−11) % | IC50 (IL-1β, human whole blood): 1100 nM
8 | CCOC1OC(=O)C[C@@H]1NC(=O)[C@@H]1CCCN2C(=O)CC[C@H](NC(=O)c3cc(Cl)c(O)c(Cl)c3)C(=O)N12 (stereo partly drawn) [Compound 550k, [1S,9S(2RS,3S)]9-[(3,5-Dichloro-4-hydroxybenzoyl)amino]-6,10-dioxo-1,2,3,4,7,8,9,10-octahydro-N-(2-ethoxy-5-oxotetrahydrofuran-3-yl)-6H-pyridazino[1,2-a][1,2]diazepine-1-carboxamide] | 34 | 36 | 3000 | – | – | –
9 | CCOC1OC(=O)C[C@@H]1NC(=O)[C@@H]1CCCN2C(=O)CC[C@H](NC(=O)c3cc(Cl)c(OC)c(Cl)c3)C(=O)N12 (stereo partly drawn) [Compound 550m, [1S,9S(2RS,3S)]9-[(3,5-Dichloro-4-methoxybenzoyl)amino]-6,10-dioxo-1,2,3,4,7,8,9,10-octahydro-N-(2-ethoxy-5-oxotetrahydrofuran-3-yl)-6H-pyridazino[1,2-a][1,2]diazepine-1-carboxamide] | 52 | 45 | 2000 | – | – | –
10 | O=C1C[C@H](NC(=O)[C@@H]2CCCN3C(=O)CC[C@H](NC(=O)c4ccc(O)cc4)C(=O)N23)C(OCc2ccccc2)O1 (mixture of isomers) [Compound 213p, [1S,9S (2RS,3S)]N-(2-Benzyloxy-5-oxotetrahydrofuran-3-yl)-6,10-dioxo-9-(4-hydroxybenzoyl)amino-1,2,3,4,7,8,9,10-octahydro-6H-pyridazino[1,2-a][1,2]diazepine-1-carboxamide] | – | – | – | 29 | 21% | IC50 (IL-1β, human whole blood): < 300 nM
11 | CCOC1OC(=O)C[C@@H]1NC(=O)[C@@H]1CCCN2C(=O)CC[C@H](NC(=O)c3cccc(NC(C)=O)c3)C(=O)N12 (stereo partly drawn) [Compound 550n, [1S,9S (2RS,3S)]9-(3-Acetamido) benzoylamino-6,10-dioxo-N-(2-ethoxy-5-oxo-tetrahydrofuran-3-yl)-1,2,3,4,7,8,9,10-octahydro-6H-pyridazino[1,2-a][1,2]diazepine-1-carboxamide] | 65 | 19 | < 300 | – | – | –
12 | COc1c(Cl)cc(C(=O)N[C@H]2CCC(=O)N3CCC[C@@H](C(=O)N[C@H]4CC(=O)OC4OCc4ccccc4)N3C2=O)cc1Cl (stereo partly drawn) [Compound 213m, [1S,9S(2RS,3S)]9-[(3,5-Dichloro-4-methoxybenzoyl)amino]-6,10-dioxo-1,2,3,4,7,8,9,10-octahydro-N-(2-Benzyloxy-5-oxotetrahydrofuran-3-yl)-6H-pyridazino[1,2-a][1,2]diazepine-1-carboxamide] | 42 | 26 | 2500 | – | – | –
13 | O=C(CN1C(=O)[C@@H](NC(=O)c2ccccc2)CN(C(=O)CO)c2ccccc21)N[C@H]1CC(=O)OC1OCc1ccccc1 (mixture of isomers) [Compound 695a, (3S)-2-Oxo-3-benzoylamino-5-hydroxyacetyl-N-[(2RS,3S)-benzyloxy-5-oxo-tetrahydrofuran-3-yl]-2,3,4,5-tetrahydro-1H-1,5-benzodiazepine-1-acetamide] | 78 | 49 | – | – | – | –
14 | CC(=O)N1C[C@H](NC(=O)c2cc(Cl)c(O)c(Cl)c2)C(=O)N(CC(=O)N[C@H]2CC(=O)OC2OCc2ccccc2)c2ccccc21 (mixture of isomers) [Compound 655, (3S)-2-Oxo-3-(3,5-dichloro-4-hydroxybenzoyl)amino-5-acetyl-N-[(2RS,3S)-benzyloxy-5-oxo-tetrahydrofuran-3-yl]-2,3,4,5-tetrahydro-1H-1,5-benzodiazepine-1-acetamide] | – | – | – | 68 | 0% | –
